Measured values taken from paper PMC3863970 (Nature Communications, 2013).
“Also recorded” adds a separate entry of the source.

How the values were obtained:
rSH/1:AH/1-NA virus = tested on: rSH/1:AH/1-NA virus; parameters: species or system influenza A(H7N9) virus; conditions: in vivo
rSH/1 virus = tested on: rSH/1 virus; parameters: species or system influenza A(H7N9) virus; conditions: in vivo

| Compound | reduction in viral lung titres (rSH/1:AH/1-NA virus; po) [log] | effect on viral lung titres (rSH/1 virus; po) | viral lung titres compared with mice treated with vehicle only (rSH/1:AH/1-NA virus) | viral lung titres compared with mice treated with vehicle only (rSH/1 virus) |
| --- | --- | --- | --- | --- |
| CCOC(=O)C1=C[C@@H](OC(CC)CC)[C@H](NC(C)=O)[C@@H](N)C1 [Oseltamivir, oseltamivir] | 1 | no effect; also recorded: does not suppress H7N9 virus replication | – | – |
| CC(=O)N[C@H]1[C@H]([C@H](O)[C@H](O)CO)OC(C(=O)O)=C[C@@H]1N=C(N)N [Zanamivir, zanamivir] | – | – | significantly reduced | significantly reduced |
